Laboratory results reported in PMC9421655, “Novel Antagonist of the Type 2 Lysophosphatidic Acid Receptor (LPA2), UCM-14216, Ameliorates Spinal Cord Injury in Mice” (Journal of Medicinal Chemistry, 2022).

Experiments:
[1] = In vivo levels of compound in plasma, spinal cord and brain (HPLC-MS); conditions: 25 mg/kg i.p.
Method: At 1, 2, and 4 h after drug administration (n = 3 for each time and sample), mice were sacrificed and their brains, spinal cords, and blood were obtained. The brain and spinal cord were immediately frozen and kept at −80 °C until analysis. Blood was allowed to clot at rt for 30 min and centrifuged at 4 °C for 10 min at 16 000g. Serum was transferred to a clean polypropylene tube and stored at −80 °C until analysis. For analysis, a volume of cold acetonitrile was added to the serum. The sample was incubated in an ice bath for 10 min and centrifuged at 4 °C for 10 min at 16 000g. The resulting organic layer was filtered through a PTFE filter (0.2 μm, 13 mm diameter, Fisher Scientific) and 20 μL of the sample analyzed by LC-MS/MS at the UCM’s Mass Spectrometry CAI. Separation was performed using a Phenomenex Gemini 5 μm C18 110A 150 × 2 mm column (run time 8 min; flow 0.5 mL/min; gradient: 0.5 min 10% Phase B, 2 min 60% Phase B, 4.5–6 min 100% Phase B, 7–8 min 10% Phase B; Phase A: water with formic acid 0.1%; Phase B: acetonitrile). […] The mass spectrometer ion optics were set in the multiple reaction monitoring mode and the transition selected for quantification was 432.90 > 215.10 (CE: −30 V).

LPA1 = LPA1 (Homo sapiens, UniProt Q92633); assay: cell-based; conditions: maximum blockade of activation induced by 10 μM LPA (18:1) at 10 μM compound; N.E. = no effect at 10 μM
Method: Cells stably expressing the corresponding LPA1–3 receptor were grown as described previously.[18] Changes in intracellular calcium levels were measured by using the fluorescent calcium sensitive dye Fluo-4 NW (Invitrogen). RH7777 cells or B103 cells were plated on poly-D-lysine or collagen coated, respectively, black-wall clear-bottom 96-well plates (Corning) at a density of 50 000 cells/well and cultured overnight. The culture medium was then replaced with 100 μL of Fluo-4 NW dye loading solution containing 2.5 μM of probenecid and incubated for 30 min at 37 °C followed by an additional 30 min at rt. […] Fluorescence changes were registered in a FluoStar Optima instrument (BMG Labtech) at 525 nm using an excitation wavelength of 494 nm. […] The data presented are from two to four independent experiments carried out in triplicate or quadruplicate. Dose–response curves were generated and IC50 values calculated by nonlinear regression analysis using Prism software version 5 (GraphPad Software Inc., San Diego, CA, USA).

LPA2 mutant K22A = target: T1, LPA2 mutant K22A (Homo sapiens, UniProt Q9HBW0, K19A); assay: Ca2+ mobilization in McA-RH7777 cells transfected with LPA2 point mutant K22A; assay type: cell-based; conditions: 54 at 10 μM, 10 μM LPA
T1 construct: host or cells: McA-RH7777 (CRL-1601, ATCC), transient, pcDNA3.1
T1 sequence (Q9HBW0 whole entry K19A): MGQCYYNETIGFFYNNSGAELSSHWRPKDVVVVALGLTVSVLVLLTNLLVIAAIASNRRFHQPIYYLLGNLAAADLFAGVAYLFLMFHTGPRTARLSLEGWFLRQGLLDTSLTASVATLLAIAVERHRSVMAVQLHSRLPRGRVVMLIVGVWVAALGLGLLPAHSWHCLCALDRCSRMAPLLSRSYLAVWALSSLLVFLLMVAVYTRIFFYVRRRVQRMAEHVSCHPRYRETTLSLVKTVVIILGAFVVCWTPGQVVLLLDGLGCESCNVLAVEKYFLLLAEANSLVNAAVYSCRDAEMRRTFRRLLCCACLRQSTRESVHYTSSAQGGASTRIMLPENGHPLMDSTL

Sequence of LPA1 (Q92633 whole entry, species assumed): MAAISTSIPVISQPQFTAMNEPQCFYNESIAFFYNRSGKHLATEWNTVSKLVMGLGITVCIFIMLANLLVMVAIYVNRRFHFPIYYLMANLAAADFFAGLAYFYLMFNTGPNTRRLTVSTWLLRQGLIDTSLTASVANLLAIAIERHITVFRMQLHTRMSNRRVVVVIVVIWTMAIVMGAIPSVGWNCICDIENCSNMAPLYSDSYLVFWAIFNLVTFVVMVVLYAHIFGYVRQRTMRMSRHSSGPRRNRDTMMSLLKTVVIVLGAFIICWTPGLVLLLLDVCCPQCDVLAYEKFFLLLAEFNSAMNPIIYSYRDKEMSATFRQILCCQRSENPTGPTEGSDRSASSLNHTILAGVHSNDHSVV

## Cc1[nH]nc(-c2ccc(OCc3nnn[nH]3)cc2O)c1Oc1ccc(Cl)cc1Cl [Compound 54]
[1]
  time of maximum levels in spinal cord and brain: one hour postadministration
LPA1
  Emax (%) LPA1: inactive and N.E.
LPA2 mutant K22A
  agonist/antagonist activity at LPA2 K22A mutant: no significant agonist nor antagonist activity
